Test results taken from patent publication US8653036B2, “Methods of treating retinitis pigmentosa” (Mimetogen Pharmaceuticals Inc., priority 2009, dated 2014).

B1: NT-3: Neurotrophin-3 (an agonist of TrkC and p75 receptors) (protein, UniProt P20783 139-257, looked up)
Neurotrophin-3: YAEHKSHRGEYSVCDSESLWVTDKSSAIDIRGHQVTVLGEIKTGNSPVKQYFYETRCKEARPVKNGCRGIDDKHWNSQCKTSQTYVRALTSENNKLVGWRWIRIDTSCVCALSRKIGRT

Columns and labels:
[1] = tested on: APRE19 cells; experiment: Protection of retinal pigmented epithelial cells from oxidative-stress-induced apoptosis (TNFα and H2O2), nuclei stained with Hoechst reagent; assay type: cell-based; settings: stressed APRE19 cells, TNFα and H2O2, sixteen hours
Method: Neurotrophic Protection of Retinal Pigmented Epithelial Cells from Degeneration Due to Oxidative Stress
The purpose of this study was to investigate the pharmacological concept of neurotrophic prevention of oxidative-stress-induced degeneration of retinal pigmented epithelial (RPE) cells. The aim of this study was to validate specific compounds as therapy for retinitis pigmentosa.
APRE19 cells were cultured in complete media, followed by eight hours of serum starvation. Then apoptosis was induced by exposure to oxidative stress (TNFα and H2O2), in the presence or absence of test compounds or controls for sixteen hours. Apoptosis was quantified as the percentage of dead cells over total live+dead cells by counting nuclei stained with Hoechst reagent.
Test agents included nerve growth factor (an agonist of TrkA and p75 receptors), Neurotrophin-3 (an agonist of TrkC and p75 receptors), and compounds D3, 3Ak, 3Ae and 3Aa.

[2] = tested on: mouse model of retinal degeneration; experiment: Mouse model of retinal degeneration: ERG (scotopic and photopic) and number of Outer Nuclear Layer rows; assay type: in vivo; settings: drug treated versus control treated animals
Method: Additional experiments in a mouse model of retinal degeneration were conducted.

[3] = tested on: APRE19 cells; settings: cited from earlier work

Molecule | protection of apoptosis (in words) [1] | drug effect on ERG (scotopic and photopic) and number of Outer Nuclear Layer rows versus control [2] | protection of stressed APRE19 cells by neurotrophins (published) [3]
NCCCC[C@@H]1NC(=O)[C@H](CCC(=O)O)NC(=O)c2cc([N+](=O)[O-])ccc2OCCC(C(=O)NCC(=O)O)NC1=O (stereo partly shown) [Compound D3] | quantitative and significant protection of apoptosis, in a dose dependent manner |  | 
CC[C@H](C)[C@@H]1NC(=O)c2cc(N)ccc2OCc2ccc(C(N)=O)cc2NC(=O)[C@H](CCCNC(=N)N)NC1=O [Compound 3Ae] | quantitative and significant protection of apoptosis, in a dose dependent manner |  | 
CC[C@H](C)[C@@H]1NC(=O)c2cc(N)ccc2OCc2ccc(C(N)=O)cc2NC(=O)[C@H](CCCCN)NC1=O [Compound 3Aa] | protection is not dose dependent and is less than that seen with compounds D3, 3Ak and 3Ae | did not show a drug effect that was statistically significant from control | 
NGF: nerve growth factor (an agonist of TrkA and p75 receptors) |  |  | Protection of stressed APRE19 cells
N=C(N)NCCC[C@@H]1NC(=O)c2cc(N)ccc2OCc2ccc(C(N)=O)cc2NC(=O)CNC1=O [Compound 3Ak] | quantitative and significant protection of apoptosis, in a dose dependent manner |  | 
B1 |  |  | Protection of stressed APRE19 cells
